According to US20240239790A1, “7-Morpholino-1,6-Naphthyridin-5-yl Derivatives and Pharmaceutical Compositions Thereof Useful as DNA-PK Inhibitor” (adMare Therapeutics Society, priority 2021, published 2024):
Read-outs that look alike come from different tables or passages of the source.

What was measured:
[1] = molecular target: T1, DNA-PK (Homo sapiens, UniProt P78527); assay: DNA-PK Assay for Biochemical Enzymatic Inhibition (ADP Glo Kinase assay); details: DNA-PK enzyme
T1 construct: purchased Invitrogen PR9107A
Procedure: A biochemical assay was performed to identify IC50 values against DNA-PK activity in a two-step reaction with a kinase reaction followed by ADP Glo™ Kinase assay Kit (Promega V9102).
Three-fold serial dilutions of compounds in DMSO were prepared in kinase assay buffer (50 mM HEPES pH 7.5, 20 mM MgCl2, 100 mM KCl, 50 μM DTT, 10 μg/ml calf thymus DNA, 0.01% Tween 20). Kinase assay buffer was used to prepare compound treatments to 0.02% DMSO (dimethyl sulphoxide) content. DMSO controls were prepared to produce a maximum and minimum luminescence signal for normalization. Substrate (Anaspec, AS-60210-5) and ATP (Promega V9102) and ATP mix was prepared by dilution in kinase assay buffer for 434.4 μM and 64.4 μM final assay concentrations, respectively. Compounds and control were added to 25 ng DNA-PK enzyme (Invitrogen, PR9107A) diluted in kinase buffer in assay plate (Corning 267459) and incubated for 15 minutes at room temperature prior to addition of substrate and ATP mix.
Throughout the assay, each time a reagent was added to the microplate, it was centrifuged for 1 minute at 1300 rcf. All reagents were added, and incubations carried out at room temperature. The reaction was then incubated for 60 minutes. ADP-ATP standards at 0, 4, 10, 40, 80, and 100% ADP (prepared as specified in the ADP Glo™ Kinase assay kit) were also added to the microplate at a volume equal to the total kinase reaction. The ADP Glo™ Kinase Assay kit was then used to quantify DNA-PK activity: following the 60-minute incubation, a 1:1 volume of ADP Glo reagent was added to all wells, then following a further 45-minute incubation, a 1:1 volume of Kinase Detection Reagent was added to all wells. After this two-step assay, plates were incubated in a Synergy-Neo2 plate reader for 30 minutes with gentle shaking, followed by endpoint luminescent read Luminescence data was normalized by subtracting the background signal and expressing all background-adjusted values as a percentage of the average maximum signal. The data was then expressed as percent inhibition by subtracting from 100% (i.e. maximum luminescent signal will be 0% inhibition) and the resulting data plotted against ten concentration points on a logarithmic scale, using GraphPad Prism. Non-linear regression analysis was performed on each concentration response curve and the log [inhibitor] vs response—variable slope (four parameters) equation was selected to generate IC50 values.

[2] = test system: pH2AX induction in HCT116 ATM-/- multicellular tumour spheroids; assay: Prodrug Radiation Sensitization in Multicellular Tumour Spheroids, inhibition of pH2AX induction following radiation; format: cell-based
In short: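 Endpoint: pH2AX (ser 139) or pDNA-PK (ser 2056) in cryosections fixed 1 or 2 h after 20 Gy, comparing oxygenated outer with hypoxic inner layers. Spheroids of ~0.5 mm (HCT116, FaDu; ATM-deficient cells used) held at 20% or 5% O2, 37 °C, stirred. Prodrug range 3.5 nM–10 μM.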

[3] = molecular target: T2, DNA-PK phosphorylation at Serine 2056 (Homo sapiens, UniProt P78527); assay: Cellular Assay for Inhibition of DNA-PK Phosphorylation at Serine 2056 in FaDu cells (sandwich ELISA, neocarzinostatin); format: cell-based; details: pSer2056 DNA-PK
T2 construct: FaDu cells were purchased from ATCC; host or cells: FaDu
In short: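 pSer2056 and total DNA-PK were measured by sandwich ELISA in BCA-normalised FaDu lysates. Cells had 1 h compound exposure (0.3% DMSO), then 2 h with 1 μg/mL final neocarzinostatin. IC50 was fitted (variable slope) to % inhibition scaled against NCS-stimulated and DMSO-only controls.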

[4] = neocarzinostatin 1 μg/mL, Table 1

| SMILES | IC50 ([1]; Table 2) | IC50 ([3]; Table 2) | IC50 ([1]; Table 1) | IC50 [3, 4] | also measured |
| --- | --- | --- | --- | --- | --- |
| Cn1c(COC(=O)Nc2cnc3cc(N4CCOCC4)nc(O[C@H]4CC[C@@H](Nc5ncccn5)CC4)c3c2)cnc1[N+](=O)[O-] [LFA108, (3-methyl-2-nitro-imidazol-4-yl)methyl N-[7-morpholino-5-[4-(pyrimidin-2-ylamino)cyclohexoxy]-1,6-naphthyridin-3-yl]carbamate] | 10 to 150 nM | 10000 to 30000 nM | – | – | EC50 ([2]; Homo sapiens, HCT-116, 20 Gy, 5% O2, inner layers, read-out: Prodrug 5% O2 Inner layers EC50): 10 to 500 nM; EC50 ([2]; Homo sapiens, HCT-116, 20 Gy, 5% O2, outer layers, read-out: Prodrug 5% O2 Outer layers EC50): 500 to 1000 nM; EC50 ([2]; Homo sapiens, HCT-116, 20 Gy, 20% O2, outer layers, read-out: Prodrug 20% O2 Outer layers EC50): 1000 to 10000 nM |
| COCC(=O)N[C@H]1CC[C@@H](Oc2nc(N3CCOCC3)cc3ncccc23)CC1 [Compound 105, 2-Methoxy-N-((1s,4s)-4-((7-morpholino-1,6-naphthyridin-5-yl)oxy)cyclohexyl)acetamide] | – | – | 1 to 10 nM | 100 to 1000 nM | – |
| Cn1cc([C@H]2CC[C@@H](Oc3nc(N4CCOCC4)cc4ncc(OCCN5CCOCC5)cc34)CC2)cn1 [Compound 6, 4-(5-(((1s,4s)-4-(1-methyl-1H-pyrazol-4-yl)cyclohexyl)oxy)-3-(2-morpholinoethoxy)-1,6-naphthyridin-7-yl)morpholine] | – | – | 10 to 150 nM | 100 to 1000 nM | – |
| CN(C)C(=O)COc1ccc(N[C@H]2CC[C@@H](Oc3nc(N4CCOCC4)cc4ncccc34)CC2)nn1 [Compound 57, N,N-dimethyl-2-((6-(((1s,4s)-4-((7-morpholino-1,6-naphthyridin-5-yl)oxy)cyclohexyl)amino)pyridazin-3-yl)oxy)acetamide] | – | – | 10 to 150 nM | 10000 to 30000 nM | – |
| CN(C)C(=O)COc1cnc(NC2CCC(Oc3nc(N4CCOCC4)cc4ncc(N(Cc5ncc([N+](=O)[O-])n5C)S(C)(=O)=O)cc34)CC2)nc1 (stereo not shown) [LFA013, N,N-Dimethyl-2-[2-[[4-[[3-[(1-methyl-5-nitro-imidazol-2-yl)methyl-methylsulfonyl-amino]-7-morpholino-1,6-naphthyridin-5-yl]oxy]cyclohexyl]amino]pyrimidin-5-yl]oxy-acetamide] | 10 to 150 nM | 1000 to 10000 nM | – | – | EC50 ([2]; 20 Gy, 5% O2, inner layers, read-out: Prodrug 5% O2 Inner layers EC50): 10 to 500 nM; EC50 ([2]; 20 Gy, 5% O2, outer layers, read-out: Prodrug 5% O2 Outer layers EC50): 1000 to 10000 nM; EC50 ([2]; 20 Gy, 20% O2, outer layers, read-out: Prodrug 20% O2 Outer layers EC50): 1000 to 10000 nM; EC50 ([2]; value of the (unnamed) effector of the listed prodrug, 20 Gy, 5% O2, inner layers, read-out: Effector 5% O2 Inner layers EC50): 10 to 500 nM |
| N#CCC(=O)N[C@H]1CC[C@@H](Oc2nc(N3CCOCC3)cc3ncccc23)CC1 [Compound 107, 2-Cyano-N-((1s,4s)-4-((7-morpholino-1,6-naphthyridin-5-yl)oxy)cyclohexyl)acetamide] | – | – | 1 to 10 nM | 100 to 1000 nM | – |
